This is an account of results in patent US6620985B1, “PAD4 nucleic acid compositions from Arabidopsis and methods therefor” (University of Maryland Biotechnology Institute, priority 1998, dated 2003).

The test system of one test is camalexin synthesis. In words: Camalexin assay in Psm ES4326-infected leaves. Format: in vivo, Arabidopsis thaliana. The settings on record: SA sprayed one day before Psm ES4326 infection, assayed two days after infection. From the text:
(§1) Inoculations with Bacteria and Treatment with Chemicals. Pseudomonas syringae pv maculicola (Psm) ES4326 (Dong et al., 1991, Plant Cell 3, 61-72; Crute et al., 1994, in Arabidopsis, eds. Meyerowitz & Somerville, Cold Spring Harbor Press, NY, pp. 705-747), Pseudomonas. syringae pv tomato (Pst) DC3000 (Cuppels, 1986, Appl. Environ. Microbiol. 52, 323-327) and Xanthomonas campestris pv campestris (Xcc) BP109 (Weiss et al., 1994, J. Bacteriol. 176, 3354-3359) have been described. The avirulence gene avrRpt2 was carried on plasmid pLH12 as described (Dong et al., 1991, Plant Cell 3, 61-72; Whalen et al., 1991, Plant Cell 3, 49-59). P. syringae strains were grown in King's B medium supplemented with appropriate antibiotics (Glazebrook and Ausubel, 1994, Proc. Natl. Acad. Sci. USA 91, 8955-8959), and Xcc BP1 09 was grown in Luria-Bertani medium supplemented with 50 μg/mL rifampicin. Bacteria were infiltrated into Arabidopsis plants as described (Glazebrook and Ausubel, 1994, PNAS USA 91, 8955-8959; Glazebrook et al., 1996, Genetics 146: 381-392). For camalexin assays, the bacterial dose for P. syringae strains was 3×10^4 colony-forming units (cfu)/cm^2 leaf area (equivalent to OD600=0.006); for Xcc BP109 it was 5×10^5 cfu/cm^2 (OD600=0.1). […]
Phytoalexin Quantitation. […]

In a further test the test system is PAD4 mRNA. The test can be described thus: PAD4 RNA blot analysis after SA treatment. The format is in vivo, Arabidopsis thaliana. The settings on record: 5 mM SA. From the text:
Inoculations with Bacteria and Treatment with Chemicals. Pseudomonas syringae pv maculicola (Psm) ES4326 (Dong et al., 1991, Plant Cell 3, 61-72; Crute et al., 1994, in Arabidopsis, eds. Meyerowitz & Somerville, Cold Spring Harbor Press, NY, pp. 705-747), Pseudomonas. syringae pv tomato (Pst) DC3000 (Cuppels, 1986, Appl. Environ. Microbiol. 52, 323-327) and Xanthomonas campestris pv campestris (Xcc) BP109 (Weiss et al., 1994, J. Bacteriol. 176, 3354-3359) have been described. The avirulence gene avrRpt2 was carried on plasmid pLH12 as described (Dong et al., 1991, Plant Cell 3, 61-72; Whalen et al., 1991, Plant Cell 3, 49-59). P. syringae strains were grown in King's B medium supplemented with appropriate antibiotics (Glazebrook and Ausubel, 1994, Proc. Natl. Acad. Sci. USA 91, 8955-8959), and Xcc BP1 09 was grown in Luria-Bertani medium supplemented with 50 μg/mL rifampicin. Bacteria were infiltrated into Arabidopsis plants as described (Glazebrook and Ausubel, 1994, PNAS USA 91, 8955-8959; Glazebrook et al., 1996, Genetics 146: 381-392). For camalexin assays, the bacterial dose for P. syringae strains was 3×10^4 colony-forming units (cfu)/cm^2 leaf area (equivalent to OD600=0.006); for Xcc BP109 it was 5×10^5 cfu/cm^2 (OD600=0.1). For experiments involving extraction of total RNA from infected leaves, Psm ES4326 and Psm ES4326 carrying avrRpt2 were introduced at a dose of 10^4 cfu/cm^2 leaf area (equivalent to OD600=0.002). For determination of Psm ES4326 growth, plants were infected with Psm ES4326 at a dose of 10^3 cfu/cm^2 leaf area (equivalent to OD600=0.0002). After […] were excised and bacterial growth was assayed as described (Glazebrook et al., 1996, Genetics 143, 973-982). Data are reported as means and standard deviations of the log(cfu/cm^2) of six replicates. For chemical treatment, plants were sprayed with 5 mM SA or 5 mM silver nitrate with 0.02% Silwet L-77 (Lehle Seeds, Tucson, Ariz.) to reduce surface tension. Control plants were sprayed with water containing 0.02% Silwet L-77.
PAD4 RNA Blot Analysis. […]

The subject of a further test is PR-1. The test can be described thus: PR-1 expression (RNA blot) after SA treatment. The format is in vivo, Arabidopsis thaliana. From the text: Plants and Growth Conditions. Wild-type plants (Arabidopsis thaliana ecotype Columbia (Col)) and pad4 plants from a line that had been backcrossed four times to the wild-type parent (Col) (Glazebrook et al., 1996, Genetics 143, 973-982) were used in this study. Arabidopsis ecotype Keswick (Ksk) was provided by Eric Holub (Horticulture Research International, Warwick, UK). Arabidopsis ecotype Landsberg erecta (Ler) plants carrying the nahG transgene were provided by Xinnian Dong (Bowling et al., 1994, Plant Cell 6, 1845-1857). nahG mutant plants used in this example, and all other examples, were of the Ler ecotype. Plants were grown in pots in Metro-Mix 200 soil (Scotts-Sierra Horticultural Products Company, Marysville, Ohio) in a growth chamber (22±2° C., 85% relative humidity, 100 μE s^−1 m^−2 fluorescent illumination) on a 12-hr light/dark cycle. Fully-expanded leaves of four-week old plants were used.
Inoculations with Bacteria and Treatment with Chemicals. Pseudomonas syringae pv maculicola (Psm) ES4326 (Dong et al., 1991, Plant Cell 3, 61-72; Crute et al., 1994, in Arabidopsis, eds. Meyerowitz & Somerville, Cold Spring Harbor Press, NY, pp. 705-747), Pseudomonas. syringae pv tomato (Pst) DC3000 (Cuppels, 1986, Appl. Environ. Microbiol. 52, 323-327) and Xanthomonas campestris pv campestris (Xcc) BP109 (Weiss et al., 1994, J. Bacteriol. 176, 3354-3359) have been described. […]

The next test concerns Psm ES4326. The test can be described thus: Psm ES4326 growth in plants sprayed with SA. Format: in vivo, Pseudomonas syringae pv maculicola. The settings on record: 5 mM SA sprayed one day before infection; titer three days after infection; wild-type and pad4-1.
Excerpt: as §1

As for `O=C(O)c1ccccc1O` [SA, salicylic acid], in the test on camalexin synthesis, the “camalexin levels in wild-type plants” value is “little effect on camalexin levels”. Further, the “camalexin levels in pad4-1 plants” value in the test with camalexin synthesis (vs not pretreated) is listed as “much higher camalexin levels”. Also, in the test with PAD4 mRNA (six and twelve hours after treatment), the “PAD4 transcript levels in npr1-1 plants” value is “undetectable”. Besides, the “PAD4 transcript levels in wild-type plants” value with PAD4 mRNA (wild-type (Col), six and twelve hours after treatment) was “markedly detectable”. Besides, in the test on PAD4 mRNA (wild-type (Col, Ler), pad4-1, pad4-3, pad4-4 plants), the “PAD4 mRNA levels” value is given as “increased rapidly after SA treatment”. In addition, the “PR-1 mRNA level in pad4-1 plants” value with PR-1 (5 mM SA one day before Psm ES4326 infection, two days after infection) is recorded as “comparable to that in wild-type plants”. Further, the “PR-1 expression in response to SA” value in the test with PR-1 (plants sprayed with 5 mM SA, wild-type and pad4-1, monitored for several days) was “induced similar levels of PR-1 expression in wild-type and pad4-1 plants”. Besides, in the test with Psm ES4326, the “resistance to Psm ES4326 (bacterial titer)” value was “induced comparable levels of resistance to Psm ES4326 in wild-type and pad4-1 plants”.
